Test results: patent US20090163696A1, “METHOD FOR PREPARING LYSOBACTIN DERIVATIVES” (priority 2006, published 2009)
*1 amine or outer side, *2 acyl side, *3 side chain or, on linkers, in order; H or OH if unused. Where a SMILES comes first, the peptide text is derived from it. Bridges are numbered along the chain shown (N, C = ends). [ ]: non-standard residue; d: D form. ξ: configuration not given here. Phe(3R-OH) = O=C([C@@H](N[*:1])[C@H](O[*:3])c1ccccc1)[*:2]; Asn(3S-OH) = NC(=O)[C@@H](O)[C@H](N)C(=O)O; Leu(3R-OH) = CC(C)[C@@H](O)[C@H](N)C(=O)O; aThr = C[C@H](O)[C@H](N)C(=O)O; ξS = NC(CO)C(=O)O

System: Staphylococcus aureus 133, Entercococcus faecalis ICB27159 and Streptococcus pneumoniae G9a
Assay: Determination of the minimum inhibitory concentration (MIC), liquid dilution test
Type: cell-based
Details: lysobactin prepared by complete synthesis compared with fermented lysobactin
Procedure: The in vitro effect of the compounds of the invention can be shown in the following assay: Determination of the Minimum Inhibitory Concentration (MIC): The MIC is determined in the liquid dilution test in accordance with the NCCLS guidelines. Overnight cultures of Staphylococcus aureus 133, Entercococcus faecalis ICB27159 and Streptococcus pneumoniae G9a are incubated with the described test substances in a 1:2 dilution series. The MIC determination is carried out with a cell count of 10^5 microbes per ml in Isosensitest medium (Difco, Irvine/USA), with the exception of S. pneumoniae, which is tested in BHI broth (Difco, Irvine/USA) with 10% bovine serum at a cell count of 10^6 microbes per ml. The cultures are incubated at 37° C. for 18-24 hours, S. pneumoniae in the presence of 10% CO2. The MIC is defined as the lowest concentration of each substance at which no visible bacterial growth occurs any longer. The MIC values are reported in μg/ml.

Q: With CC[C@H](C)[C@@H]1NC(=O)[C@@H](CCCNC(=N)N)NC(=O)[C@H](CC(C)C)NC(=O)[C@H]([C@H](O)C(C)C)NC(=O)[C@@H](NC(=O)[C@H](CC(C)C)NC(=O)[C@H](N)CC(C)C)[C@@H](c2ccccc2)OC(=O)C(CO)NC(=O)[C@H]([C@H](O)C(N)=O)NC(=O)CNC(=O)[C@H]([C@H](C)O)NC1=O (stereo partly drawn) [lysobactin, Lysobactin Bistrifluoroacetate] (H-[dL]L[Phe(3R-OH)][Leu(3R-OH)]L[dR]I[aThr]G[Asn(3S-OH)][ξS]; ester 3-C) as the molecule, how does the “physiological activity (MIC)” value read?
A: Its value is “No significant differences”.
